Data set [1] concerns TGFα mice. In words: Short-term naltrexone therapy in TGFα-induced pulmonary fibrosis: total lung RNA gene expression. It is filed as in vivo. The note with it: 10 mg/kg or 50 mg/kg b.i.d. for one week, started after two weeks on Dox; vs vehicle. The procedure:
FIG. 6: Naltrexone therapy attenuates ECM and proliferative gene expression in pulmonary fibrosis. (A) Experimental schemata of naltrexone therapy study in vivo. Three groups of mice on Dox for two weeks were treated with either vehicle or naltrexone (10 mg/kg or 50mg/kg bodyweight, b.i.d) and sacrificed after a week of treatment while continued on Dox. Total lung RNA was analyzed for the expression of: (B) ECM genes (FN1, Col5α, and Col6α) and (C) proliferation genes (Aurka, IL-6, and Calcb). One-Way ANOVA (N=4/group; *P<0.05).
(§1) To probe mechanisms of EGFR-mediated lung remodeling, we generated transgenic mice in which TGFα was conditionally overexpressed in the lung epithelium using the CCSP rtTA promoter. When doxycycline (Dox) was administered, overexpression of TGFα in the adult mice (N=4−5 mice/group) caused progressive and extensive adventitial, interstitial, and subpleural fibrosis. Several histological features of fibrosis in the TGFα model were found in the pathologic lesions of IPF, including subpleural fibrosis radiating into the adjoining interstitium and the differentiation of myofibroblasts (FIG. 3). Physiologically, the mice developed progressive cachexia and lung-function decline with gene expression profiles similar to human IPF. The proenkephalin A (PENK) gene that codes for several opioid peptides was elevated in fibrotic lungs during TGFα-induced pulmonary fibrosis (FIG. 4).
Naltrexone therapy attenuates ECM and proliferative gene expression in pulmonary fibrosis. […] Three groups of mice (N=4 mice/group) on Dox for two weeks were treated with either vehicle or naltrexone (10 mg/kg or 50 mg/kg bodyweight, b.i.d) and sacrificed after a week of treatment while continued on Dox. The down arrow represents initiation of the vehicle or drug treatment (at two weeks on Dox) and the horizontal arrows indicate the duration of vehicle or drug treatment (one week while continuing to administer Dox). […] The RNA from the three ECM genes decreased when treated with naltrexone. […] The RNA from the three proliferation genes decreased when treated with naltrexone.

The test system of data set [2] is IPF fibroblasts. In words: Gene expression in primary fibroblasts isolated from fibrotic lesions of IPF lungs. The note with it: naltrexone 10 μM, 24 hrs, vs vehicle. The class given is cell-based, human. The procedure: FIG. 10: Naltrexone treatment attenuates ECM and proliferation gene expression in IPF fibroblasts. Expression of ECM genes (FN1, Col3α, and αSMA) and proliferation gene (Aurka) was attenuated in IPF fibroblasts treated with naltrexone (10 μM) compared to vehicle treatment for 24 hrs in IPF fibroblasts. Unpaired t-test (N=3/group; *P<0.05).
We treated primary fibroblasts isolated from fibrotic lesions of IPF lungs. […] These findings are consistent with a mechanism of action for opioid receptor inhibitors (e.g., naltrexone) that influences (e.g., decreases) ECM and proliferation.

Data set [3] has as its system TGFα mice. In words: Naltrexone therapy in TGFα-induced pulmonary fibrosis: body weight, lung weight, lung function (FlexiVent). It is filed as in vivo. The note with it: 80 mg/kg b.i.d. for three weeks, started after three weeks on Dox, vs vehicle. The procedure:
FIG. 7: Naltrexone therapy attenuates body weight loss in pulmonary fibrosis. (A) Experimental schemata of naltrexone therapy study in vivo. Three groups of mice on Dox for three weeks were treated with either vehicle or naltrexone (80 mg/kg bodyweight, b.i.d) and then sacrificed after three weeks of treatment while continued on Dox. (B) The loss of body weight was attenuated with naltrexone therapy compared to vehicle treatment in TGFα mice. One-Way ANOVA (N=4−6/group; *P<0.05).
FIG. 8: Naltrexone therapy attenuates increase in lung weights in pulmonary fibrosis. Three groups of mice on Dox for three weeks were treated with either vehicle or naltrexone (80 mg/kg bodyweight, b.i.d) and then sacrificed after three weeks of treatment while continued on Dox. The increase in lung weights was attenuated with naltrexone therapy compared to vehicle treatment in TGFα mice. One-Way ANOVA (N=4−6/group; *P<0.05).
FIG. 9: Naltrexone therapy attenuates lung function decline in pulmonary fibrosis. Three groups of mice on Dox for three weeks were treated with either vehicle or naltrexone (80 mg/kg bodyweight, b.i.d) and then sacrificed after three weeks of treatment while continued on Dox. Decrease in the lung function (A,
Resistance; B, Compliance; C, Elastance) was attenuated with naltrexone therapy compared to vehicle treatment in TGFα mice. One-Way ANOVA (N=4−6/group; *P<0.05).
as §1
Naltrexone therapy attenuates body weight loss in pulmonary fibrosis. […] Three groups of mice (N=4−6 mice/group) were on Dox for three weeks, and were then treated with either vehicle or naltrexone (80 mg/kg bodyweight, b.i.d) along with Dox for another three weeks; six weeks after being on DOX and three weeks after being treated with vehicle or naltrexone, the mice were sacrificed. The down arrow represents initiation of the vehicle or naltrexone treatment and the horizontal arrows indicate the duration of the vehicle or naltrexone treatment (three weeks while continuing to administer Dox).
Naltrexone therapy attenuates increase in lung weights in pulmonary fibrosis. Mice (N=4−6 mice/group) were on Dox for three weeks, and were then treated with either vehicle or naltrexone (80 mg/kg bodyweight, b.i.d) along with Dox for another three weeks; six weeks after being on DOX and three weeks after being treated with vehicle or naltrexone, the mice were sacrificed (See, e.g., FIG. 7A). […] In TGFα mice, increases in lung weight are due to pulmonary fibrosis.
Naltrexone therapy attenuates lung function decline in pulmonary fibrosis. […]

The conditions of data set [4]: treatment of idiopathic pulmonary fibrosis; cited from earlier work.
Data set [5] has as its system mice. In words: Mouse model of bleomycin-induced pulmonary fibrosis (repetitive intradermal bleomycin). The class given is in vivo. Particulars: bleomycin 6 units per kg intradermally, 5 days a week for 4 wks; vs saline-treated controls. From the text:
FIG. 5: Mouse model of bleomycin-induced pulmonary fibrosis. Masson's trichrome-stained lung sections show extensive collagen deposition in mice treated intradermally with bleomycin (6 U/kg body weight; 5 days/week for 4 weeks) (B) compared to saline (A).
We developed an alternative mouse model of bleomycin-induced pulmonary fibrosis. For these experiments, we injected mice (N=5 mice/group) intradermally with bleomycin (6 units per kg body weight) for 5 days in a week for a total of 4 wks.

The source of these data is patent US20190247373A1, “METHODS FOR TREATING FIBROSIS” (CHILDREN'S HOSPITAL MEDICAL CENTER, priority 2016, published 2019).

In the case of `O=C1CC[C@@]2(O)[C@H]3Cc4ccc(O)c5c4[C@@]2(CCN3CC2CC2)[C@H]1O5` [naltrexone, 17-(cyclopropylmethyl)-4,5α-epoxy-3,14-dihydroxymorphinan-6-one], in data set [1], the “Total lung RNA expression of ECM gene Collagen alpha 1 V (Col5α)” value was “decreased”, the “Total lung RNA expression of ECM gene Collagen alpha 1 VI (Col6α)” value is “decreased”, the “Total lung RNA expression of ECM gene Fibronectin (FN1)” value is reported as “decreased” and the “Total lung RNA expression of proliferation gene Aurora kinase A (Aurka)” value is on record as “decreased”. Moreover, in data set [1], the “Total lung RNA expression of proliferation gene Calcitonin Related Polypeptide Beta (Calcb)” value is reported as “decreased” and the “Total lung RNA expression of proliferation gene Interleuken 6 (IL-6)” value was “decreased”. In addition, in data set [2], the “Expression of ECM gene alpha smooth-muscle actin (αSMA)” value was “inhibited”, the “Expression of ECM gene fibronectin 1 (FN1)” value is recorded as “inhibited”, the “Expression of ECM gene procollagen 3α1 (Col3α)” value is reported as “inhibited” and the “Expression of proliferation gene Aurora kinase A (AURKA)” value is given as “inhibited”. Besides, in data set [3] (FlexiVent), the “Dox-induced changes in lung function: Compliance” value is “reversed”, the “Dox-induced changes in lung function: Elastance” value is “reversed” and the “Dox-induced changes in lung function: Resistance” value is reported as “reversed”. In addition, in data set [3], the “Increase in lung weights” value is on record as “attenuated” and the “Loss of body weight” value was “attenuated”.
`COC(=O)c1ccc2c(c1)NC(=O)/C2=C(\Nc1ccc(N(C)C(=O)CN2CCN(C)CC2)cc1)c1ccccc1` [nintedanib]: the Effect on mortality result in data set [4] is “neither pirfenidone nor nintedanib had any effect”.
With `Cc1ccc(=O)n(-c2ccccc2)c1` [pirfenidone], in data set [4], the Effect on mortality entry was “neither pirfenidone nor nintedanib had any effect” and the “Effect on respiratory symptoms” value is recorded as “no effect”.
As to bleomycin, in data set [5], the “Increase in airway resistance” value is reported as “greater than two-fold” and the “Increase in lung hydroxyproline levels” value is listed as “greater than two-fold”.
